Measured values: patent publication US4321254A, “Antiallergic imidodisulfamides” (SmithKline Corporation, priority 1980, dated 1982)

Test system: slow reacting substance of anaphylaxis (SRS-A)
Experiment: Inhibition of SRS-A induced contraction of guinea pig ileum
Details: compound concentration 5×10^-6 M, partially purified SRS-A from guinea pig lung, agonist 40 μg/ml, 15 min, 5 µM
Method: The SRS-A antagonist activity of the compounds of this invention is measured by the ability of the active medicament to inhibit SRS-A induced contraction of guinea pig ileum. In this test system, sections of ileum are resected from guinea pigs and placed in 5 ml. tissue baths containing a modified Tyrode's solution. One end of the tissue is fixed to a glass tissue holder, the other is connected to a force-displacement transducer and the tissue is placed under a tension of 500 mg. Isometric tissue contractions are recorded on a six channel polygraph. Baths are constantly aerated with 95% O2 -5% CO2. After a 20 minute stabilization period a concentration of the appropriate agonist which provides a contraction height of 60-80% of the maximum obtainable to that agonist (as determined) from full sequential concentration--response curves in separate experiments) is added to the tissue bath and the response recorded. The procedure is repeated until reproducible responses are obtained. […] Percent inhibition produced by the test compound is calculated by substracting the mean percentage change in control tissue from the mean percentage change in tissues exposed to the test compound. Additional compounds are then evaluated as long as the tissue remains reproducibly responsive to the agonist. […]

SMILES: O=S(=O)(Nc1ccc2c(c1)CN(S(=O)(=O)NS(=O)(=O)N1CCc3ccc(NS(=O)(=O)c4ccc(Cl)cc4)cc3C1)CC2)c1ccc(Cl)cc1 [Compound 1, N,N'-bis[7-(4-chlorophenylsulfonamide)-1,2,3,4-tetrahydroisoquinolyl]disulfonylimide]
- percent antagonism of SRS-A induced contraction: 59%
